# Results as given in patent US5928627A, “Fluorescent chelates as visual tissue specific imaging agents” (The Dow Chemical Company, priority 1997, dated 1999).
# “Also recorded” adds a separate entry of the source. Like-named read-outs stand apart in the source and are kept apart here.
# Legend:
# [1] = tested on: rat bone and intestinal tissues; settings: in vivo
# [2] = tested on: colon adenocarcinoma (1,2 dimethylhydrazine induced tumors); assay: Fluorescence imaging of normal versus neoplastic colon tissue after lavage; format: in vivo, Sprague Dawley rat; settings: 0.1 mmol/kg, 20 minutes
# Method: Tumors were induced in Sprague Dawley rats via injection of 1,2 dimethylhydrazine dihydrochloride and the subsequent feeding of a high fat, meat-based diet. […] One animal with an observable lesion was anesthetized, allowing it to respire during lavage introduction of the fluorescent marker. An aqueous solution of Tb-PTCMB at a concentration of 0.1 mmol/kg animal body weight, was administered to a Sprague Dawley rat using the 1.0 mm working lumen of the micro-endoscope. Introduction of the marker solution was made at the site of the suspect tissue mass with a volume necessary to fill the entire large intestine (method described in U.S. Pat. No. 5,456,245). […]
# Upon dissection of the large intestine, a large occlusive mass approximately 4.5 cm by 5.0 cm was found approximately 15 cm from the rectum. […] Four slides from each tissue region were first left unstained for fluorescence microscopy imaging as described below and then stained with Hematoxylin and Eosin (H&E stain). Using standard histological criteria for diagnosis, tissue taken from the suspect site was determined to be adenocarcinoma. […] The tissue taken from a location removed from the abnormality was determined to be normal.
# Using an in-house modified microscope, samples from the suspect and remote regions of the animal were imaged. Shown in FIGS. 10C and 11C are the fluorescence images of the identical regions of the same tissues. […]
# [3] = tested on: rat bone and intestinal tissues; assay: Tissue fluorescence microscopy/tissue selectivity of Tb chelates in rats
# IEC-6 cells = assay: Cytotoxicity IEC-6 cells; format: cell-based
# Text: *Average of triplicate counting. Procedure detailed in Ref. 27
# HT-29 cells = assay: Cytotoxicity HT-29 cells (Trypan blue); format: cell-based; settings: 2 mL of 2 mM Tb-PCTMB
# Method: HT-29 cell lines were obtained from American Type Culture Collection (ATCC) and maintained in Dulbecco's Modified Eagle Medium (DMEM) with 10% fetal bovine serum. Tree days prior to confluence, the cells were inoculated with 2 mL of 2 mM Tb-PCTMB and allowed to grow to confluence. Two days prior to confluence, the unbound TB-PCTMB was removed with four washings of PBS and the cells were removed from the flask with 3 mL of trypsin. The cell suspension was transferred to a centrifuge tube with 12 mL of growth media and spun a 1000 g for 10 minutes to pellet the cells. The media and the trypsin were removed and the cell suspension was resuspended in 5 mL of media. For ease in counting, 100 μL of the cell suspension was mixed with 100 μL of media in a microfuge tube. Fifty μL of this dilution was mixed with 50 μL of Trypan blue stain and loaded into the hemocytometer. The cells in 5 squares on the hemocytometer were counted where stained cells were dead and unstained cells were alive. Multiplication of the average count per square by the dilution factor (4) gave the number of cells×10^4 per mL. The number of cells reported is the average of three individual counts.
# [4] = Fluorescence properties of the complexes; format: physicochemical; settings: excited with a UV lamp
# Text: The use of terbium (Tb) or europium (Eu) as the central metal ion to render a tissue specific fluorescent probe is very appealing. Derivatives of this type would be valuable for visual assessment of tissue conditions such as early detection of cancer and would not depend upon protein conjugation to reach their target. Furthermore, concentration of the active fluorescent material could conceivably be much higher than in the case of immunoassays making detection much easier. The present complexes have an excitation band of 250 to 290 nm and a spike emission with peaks at bands of 490 to 510 nm, 540 to 560 nm, 590 to 600 nm and 615 to 635 nm, high quantum efficiency and millisecond relaxation lifetimes which allow signal collection after prompt tissue autofluorescence has subsided and allows data collection outside the range for normal tissue fluorescence. […] Furthermore, chelates derived from this family of macrocyclic ligands are among the most thermodynamically and kinetically inert lanthanide complexes, a paramount consideration for biological studies where metal ion toxicity is of major importance.
# rat bone (femur) = assay: Micro-endoscopic fluorescence imaging of rat femur; format: in vivo
# Text: The optical train used is depicted in FIG. 5. For the resolution studies a 1951 USAF resolution target was used. The resolution target consists of groups of elements (lines) that are a known width, length and distance apart. The lines on the target are made from a black emulsion deposited onto a white positive background (clear glass). The images are obtained by back illuminating the resolution target using an IR filtered xenon discharge lamp. The beam from an optical fiber passes through a diffuser of in-house construction which replaces the 270 nm interference filter (4) shown in FIG. 5. The distance of the scope tip from the target (1.5 mm) was chosen so that the best in-focus image is produced. The image was collected by a 0°, 30° and 60° viewing angle with respect to the central axis of the thin rod lens endoscope. A 10× microscope objective, placed 10 mm from the endoscope, collected, magnified and played the image onto a CCD (5). […] The software produces a graph of light intensity as a function of position across the line pairs. The limiting resolution (LP/mm) is calculated using a aerial image modulation (AIM) plot and is defined as the point where the dI/dx remains constant.
# Field of view measurements were made by repositioning the target so that a single line laterally spanned the field of view of the endoscope. The circular field of view is easily calculated knowing the length of the line on the resolution target the represents the diameter of the viewing zone. […]
# For analysis of the bone fluorescence, two rats were injected with Tb-PCTMP or Tb-BP2P. […]
# For the fluorescence measurements, the instrument in FIG. 5 was modified. […] A 550 nm bandpass filter was placed between the microscope objective (3) and the CCD (5) to select fluorescence and block background light. […]
# Upon visual inspection of the high resolution video monitor (7), resolution of 181 LP/mm can be obtained. […] As calculated in a manner similar to Example II, it is possible to estimate the quantity of solute within a particular imaged zone. […]
# UMR106 cells = assay: Subcellular uptake fluorescence in UMR106 cells (organelle and membrane smears); format: cell-based; settings: 2 mL of 2×10^-3 M
# Method: UMR106 cells were obtained from American Type Culture Collection and maintained in Basal Eagle Media with 10% fetal bovine serum. Cells were propagated so that 3×10^7 cells were contained in 25 mL. One day prior to confluence, the cells were inoculated with 2 mL of 2×10^-3 M Tb-PCTMP. At confluence, the media and Tb-TCTMP was removed with four washings of PBS. Cells were separated from the flask with 3 mL of trypsin, transferred to a centrifuge tube with 12 mL of media and spun at 1000 g for 10 minutes to pellet the cells. The pellet was resuspended in 2 mL of media and frozen by submersion of the tube into liquid nitrogen. The frozen mixture was scooped out of the tube and transferred to a mortar. To the mixture, an equal weight of sea sand and 10 mL of liquid nitrogen were added. This mixture was ground with a pestle for 30 minutes until liquefied. The resulting mixture was transferred to a centrifuge tube and spun at 10,000 rpm for 15 minutes leaving intact cells, sand and membranes in the pellet and the cytoplasmic organelles in the supernatant. The supernatant was spun at 45,000 rpm for 90 minutes in an ultracentrifuge tube to pellet the organelles. […] Both the membranes and the organelles were smeared onto microscope slides and analyzed using a Zeiss microscope, modified for UV excitation.
structure (smiles),measurement,setting,value
"O=P(O)(O)CN1Cc2cccc(n2)CN(CP(=O)(O)O)Cc2cccc(n2)C1.[Tb] [Tb-BP2P, terbium N,N'-bis(methylenephosphonic acid)-2,11,diaza[3.3]-(2,6)pyridinophane]",distribution of the chelate in bone,[1],fairly uniform
"CCCCOP(=O)(O)CN1CCN(CP(=O)(O)OCCCC)Cc2cccc(n2)CN(CP(=O)(O)OCCCC)CC1.[Tb] [Tb-PCTMB, terbium 3,6,9-tris(methylenephosphonic acid n-butyl ester)-3,6,9,15, tetraazabicyclo[9.3.1]pentadeca-1(15),11,13-triene]",relative difference between the quantity of marker solute in normal versus neoplastic tissue,[2],an order of magnitude
same,uptake by abnormal colon tissue,[2],preferential or enhanced uptake
same,tissue uptake/selectivity,[3],substantial hepatobiliary uptake; also recorded: concentrates in the small intestine
same,interactions between the chelate and blood proteins,[1],enhances interactions between the chelate and blood proteins
same,Total Cells,"IEC-6 cells; average of triplicate counting, control 5.70 × 10^6",5.30 × 10^6
same,Dead Cells,IEC-6 cells; control 10.5%,9.4%
same,Live Cells,IEC-6 cells; control 89.5%,90.6%
same,Total (Cells/ml),"HT-29 cells; average of triplicate counting, control 5.30 × 10^6",4.70 × 10^6 Cells/ml
same,Dead Cells,HT-29 cells; control 5.7%,8.5%
same,Live Cells,HT-29 cells; control 94.3%,91.5%
"O=P(O)(O)CN1CCN(CP(=O)(O)O)Cc2cccc(n2)CN(CP(=O)(O)O)CC1.[Tb] [Tb-PCTMP, terbium 3,6,9-tris(methylenephosphonic acid)-3,6,9,15-tetraazabicyclo[9.3.1]pentadeca-1(13),11,13-triene]",visible emission of the isolated complex,[4],brilliant green visible emission
same,"quantity per pixel, blue-purple contour","rat bone (femur); excised rat femur, FIG. 8",1.54×10^-15 moles Tb-PCTMP/pixel
same,"quantity per pixel, red contour","rat bone (femur); excised rat femur, FIG. 8",3.35×10^-15 moles Tb-PCTMP/pixel
same,solute present in entire imaged region of the bone (surface),"rat bone (femur); rat femur, 2 hours",about 5.19 picomoles
same,fluorescence in the organelle smear of dosed cells,UMR106 cells; control no discernible fluorescence,significant fluorescence was detected
same,fluorescence in the membrane smears,UMR106 cells; dosed and control cells,No signal was detected
same,tissue uptake/selectivity,[1],skeletal system uptake
